Experiments:
[1] = Catalytic rate constant of the compound; type: ADME
[2] = Hydrolysis rate constant of the compound; type: ADME
[3] = target: T1, Chymotrypsinogen B (Homo sapiens, UniProt P17538); test: Binding constant alpha-chymotrypsin was determined by competitive inhibition assay with Suc-Ala-Ala-Pro-Phe-pNA as substrate
[4] = target: T1, Chymotrypsinogen B; test: Binding constant alpha-chymotrypsin was determined by competitive inhibition assay with BTEE as substrate

T1 sequence (P17538 34-164 limits assumed, other chains not shown): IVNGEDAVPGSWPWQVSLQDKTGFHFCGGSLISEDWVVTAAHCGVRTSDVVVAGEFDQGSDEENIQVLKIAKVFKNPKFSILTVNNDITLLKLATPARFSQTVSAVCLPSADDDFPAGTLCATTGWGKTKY
T1 sequence (P17538 167-263 limits assumed, other chains not shown): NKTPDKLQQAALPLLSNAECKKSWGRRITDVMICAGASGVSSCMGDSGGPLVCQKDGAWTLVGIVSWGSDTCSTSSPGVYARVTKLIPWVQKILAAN

| Structure (SMILES) | Kc [1] [min⁻¹] | Kh [2] [min⁻¹] | Ki [3] [µM] | Ki [4] [µM] |
| --- | --- | --- | --- | --- |
| O=C1CC(c2ccccc2)C/C(=C\I)O1 (stereo not drawn) | 0.025 | 0.0068 | 0.0053 |  |
| O=C1CCC(c2ccccc2)/C(=C\I)O1 (stereo not drawn) |  | 0.004 |  | 55 |
| O=C1CC(c2ccccc2)/C(=C\I)O1 (stereo not drawn) |  | 0.0021 |  |  |
| C=C1CC(c2ccccc2)CC(=O)O1 (stereo not drawn) |  | 0.0015 |  |  |
| O=C1C=C(c2ccccc2)/C(=C\I)O1 |  | 0.0015 |  |  |

Reference: ChEMBL document CHEMBL1123451, “Enol lactone inhibitors of serine proteases. The effect of regiochemistry on the inactivation behavior of phenyl-substituted (halomethylene)tetra- and -dihydrofuranones and (halomethylene)tetrahydropyranones toward alpha-chymotrypsin: stable acyl enzyme intermediate” (J Med Chem, 1986)
